Results reported in publication PMC11274943, “Discovery of Benzisothiazolone Derivatives as Bifunctional Inhibitors of HIV-1 Reverse Transcriptase DNA Polymerase and Ribonuclease H Activities” (Biomolecules, 2024).
Values joined by “and” are separate entries in the source; they are usually repeats but may differ in a detail not shown here. Equal entries are not always repeated.

Assays:
[1] = molecular target: T1, Y181C HIV-1 RT RNase H activity (Human immunodeficiency virus type 1 group M subtype B, UniProt P04585, Y768C); assay: FRET-based RT RNase H cleavage assay, Y181C RT; type: biochemical
T1 construct: made in house
Method: (§1) WT (wild-type) RT, and RTs harboring the NNRTI-resistant mutations K101E, K103N, Y181C, Y188C, G190A and P236L, were overexpressed and purified to homogeneity as described previously. The RT concentration was determined spectrophotometrically at 280 nm using an absorbance coefficient of 260,450 M^−1·cm^−1. The 7-hydroxy tropolone derivative 19,616 (2,7-dihydroxy 2,4,6-cyclo-heptatrien-1-one) was purchased from Molecular Diversity Preservation International (Basel, Switzerland). Nevirapine was purchased from Selleckchem (Houston, TX, USA). The benzisothiazolone derivatives were procured from MolPort (New York, NY, USA) or Enamine (Kyiv, Ukraine). The DNA and RNA oligonucleotides were synthesized and purified by Integrated DNA Technologies (Coralville, IA, USA). All other reagents were of the highest quality available and were used without further purification.
(§2) The following RNA/DNA T/P substrate was used in the present study: an 18-nucleotide RNA template (RNA-18T: 5′-[…]-3′) was annealed to an 18-nucleotide primer (DNA-18T: 5′-[…]-3′), as described previously. Fluorescein and IowaBlack FQTM were covalently attached to the 3′- and 5′-ter-mini of the RNA and DNA oligonucleotides, respectively.
(§3) The FRET-based RNase H cleavage assays were carried out as described previously. Fluorescence was measured with a SpectraMax M2 microplate spectrofluorometer (Molecular Devices, San Jose, CA, USA) using an excitation wavelength of 490 nm and an emission wavelength of 528 nm. Data were analyzed using SoftMax Pro software, version 4.7.1 (Molecular Devices, San Jose, CA, USA).

[2] = system: Y181C HIV-1 RT RNase H activity; assay: FRET-based RT RNase H cleavage assay, Y181C RT; type: biochemical; settings: Y181C RT; fold resistance IC50 mutant/IC50 WT
Method: as §1, §2, §3

[3] = system: K101E HIV-1 RT RNase H activity; assay: FRET-based RT RNase H cleavage assay, K101E RT; type: biochemical; settings: K101E RT; fold resistance IC50 mutant/IC50 WT
Method: as §1, §2, §3

[4] = molecular target: T2, K101E HIV-1 RT RNase H activity (Human immunodeficiency virus type 1 group M subtype B, UniProt P04585, K688E); assay: FRET-based RT RNase H cleavage assay, K101E RT; type: biochemical
T2 construct: made in house
Method: as §1, §2, §3

HIV-1 = assay: Antiviral activity (HIV-1 replication) in TZM-bl cells; type: cell-based; settings: Human immunodeficiency virus 1, mean ± SD
Method: The genes for Y181C, Y181I, Y181V and Y181F were cloned into HIV-1LAI. NNRTI susceptibility was determined in TZM-bl cells, as described previously.
(§4) Next, we re-purchased 10 hit compounds with IC50 values < 1.0 µM for the inhibition of RT RNase H activity that were commercially available in sufficient quantities for further analysis. We assessed their antiviral activity and cytotoxicity in TZM-bl cells, as described previously.

[5] = Cytotoxicity in TZM-bl cells; type: cell-based; settings: human, TZM-bl cell death
Method: as §4

[6] = molecular target: T3, K103N HIV-1 RT RNase H activity (Human immunodeficiency virus type 1 group M subtype B, UniProt P04585, K690N); assay: FRET-based RT RNase H cleavage assay, K103N RT; type: biochemical
T3 construct: made in house
Method: as §1, §2, §3

[7] = system: K103N HIV-1 RT RNase H activity; assay: FRET-based RT RNase H cleavage assay, K103N RT; type: biochemical; settings: K103N RT; fold resistance IC50 mutant/IC50 WT
Method: as §1, §2, §3

[8] = system: G190A HIV-1 RT RNase H activity; assay: FRET-based RT RNase H cleavage assay, G190A RT; type: biochemical; settings: G190A RT; fold resistance IC50 mutant/IC50 WT
Method: as §1, §2, §3

[9] = molecular target: T4, G190A HIV-1 RT RNase H activity (Human immunodeficiency virus type 1 group M subtype B, UniProt P04585, G777A); assay: FRET-based RT RNase H cleavage assay, G190A RT; type: biochemical
T4 construct: made in house
Method: as §1, §2, §3

[10] = molecular target: T5, Y188C HIV-1 RT RNase H activity (Human immunodeficiency virus type 1 group M subtype B, UniProt P04585, Y775C); assay: FRET-based RT RNase H cleavage assay, Y188C RT; type: biochemical
T5 construct: made in house
Method: as §1, §2, §3

[11] = system: Y188C HIV-1 RT RNase H activity; assay: FRET-based RT RNase H cleavage assay, Y188C RT; type: biochemical; settings: Y188C RT; fold resistance IC50 mutant/IC50 WT
Method: as §1, §2, §3

[12] = molecular target: T6, P236L HIV-1 RT RNase H activity (Human immunodeficiency virus type 1 group M subtype B, UniProt P04585, P823L); assay: FRET-based RT RNase H cleavage assay, P236L RT; type: biochemical
T6 construct: made in house
Method: as §1, §2, §3

[13] = system: P236L HIV-1 RT RNase H activity; assay: FRET-based RT RNase H cleavage assay, P236L RT; type: biochemical; settings: P236L RT; fold resistance IC50 mutant/IC50 WT
Method: as §1, §2, §3

SMILES | IC50 [1] | Inhibition of RT RNase H Activity Fold-R [2] | Inhibition of RT RNase H Activity Fold-R [3] | IC50 [4] | EC50 (HIV-1) | CC50 [5] | IC50 [6] | Inhibition of RT RNase H Activity Fold-R [7] | Inhibition of RT RNase H Activity Fold-R [8] | IC50 [9] | IC50 [10] | Inhibition of RT RNase H Activity Fold-R [11] | IC50 [12] | Inhibition of RT RNase H Activity Fold-R [13]
CCN(CC)S(=O)(=O)c1cccc(-n2sc3ccccc3c2=O)c1 [Compound 4, N,N-diethyl-3-(3-oxobenzo[d]isothiazol-2(3H)-yl)benzenesulfonamide] | 0.27 ± 0.03 µM | 1.0 | 0.3 | 0.09 ± 0.03 µM | 3.27 ± 0.49 µM | ≥ 100 µM | 0.83 ± 0.23 µM | 3.2 | 1.2 | 0.31 ± 0.04 µM | 1.1 ± 0.32 µM | 4.2 | 0.31 ± 0.04 µM | 1.2
Cc1ccc(-n2sc3ccccc3c2=O)cc1S(=O)(=O)N1CCCCC1 [Compound 1, 2-(4-methyl-3-(piperidin-1-ylsulfonyl)phenyl)benzo[d]isothiazol-3(2H)-one] | 0.47 ± 0.05 µM | 2.9 | 1.6 | 0.25 ± 0.06 µM | 1.68 ± 0.94 µM | ≥ 100 µM | 0.34 ± 0.04 µM | 2 and 2.1 | 1.3 | 0.21 ± 0.02 µM | 0.32 ± 0.01 µM | 2.0 | 0.22 ± 0.01 µM | 1.4
CCOC(=O)Cc1csc(-n2sc3ccccc3c2=O)n1 [Compound 2, ethyl 2-(2-(3-oxobenzo[d]isothiazol-2(3H)-yl)thiazol-4-yl)acetate] | 0.55 ± 0.02 µM | 4.2 | 2.2 | 0.28 ± 0.02 µM | 2.68 ± 0.54 µM | ≥ 100 µM | 0.24 ± 0.12 µM | 1.8 | 1.8 | 0.23 ± 0.02 µM | 0.59 ± 0.04 µM | 4.5 | 0.21 ± 0.01 µM | 1.6
